Reference: PMC9388736, “Unexpected kinetically controlled organoselenium-based isomaleimide: X-ray structure, hirshfeld surface analysis, 3D energy framework approach, and density functional theory calculation” (Frontiers in Chemistry, 2022)

Columns and labels:
in vitro = type: cell-based, Murine; conditions: mouse
Procedure: (§1) The antiproliferative activities of OSe compounds 2, 3, and 4 were assessed against two oligodendrocyte cell lines, namely, 158 N and 158 JP, by the M.T.T. assay using 7-ketocholesterol as reference control (Supporting info, Supplementary Table S1) ([Vejux et al., 2005]; [Nury et al., 2014]). The redox profile of the compounds was evaluated using the H2-DCFDA assay, and their antiapoptotic potential was also assessed by flow cytometry ([Wilhelm et al., 2009]; [Karlsson et al., 2010]; [Shaaban et al., 2018]). Murine oligodendrocytes ([…] and 158JP) were seeded at 240,000 cells per 24-well plates and were grown using the Dulbecco's Modified Eagle Medium supplemented with penicillin antibiotics (1% v/v, streptomycin) and fetal bovine serum (5% v/v) and kept at 37 °C in atmosphere containing 5% CO2. The concentration of 7kc and vitamin E, and the time of treatment were chosen based on data obtained on 7kc treated […] cells. Organoselenium compounds were prepared in DMSO and then diluted with DMEM up to 1 mM. The MTT assay was carried out on […] and 158JP cells after one day of incubation with 7kc (50μM)/different concentrations (0, 1, 10, 20, 50 and 100 μM) of the organic selenides. In live cells, the MTT is reduced to formazan by the succinate dehydrogenase mitochondrial enzyme. The microplate reader Tecan Sunrise (Tecan, Lyon, France) was used for the reading of the plates at 570 nm. The IC50 values and the maximum concentrations without toxicity were estimated for each of the compounds from the respective dose-response curves.

158N cells [1] = assay: in vitro; type: cell-based, Murine; conditions: for IC50: mouse, 1 day
Procedure: as §1

158JP cells = assay: in vitro; type: cell-based, Murine; conditions: for IC50: mouse, 1 day
Procedure: as §1

158N cells [2] = assay: H2-DCFDA assay of ROS levels by flow cytometry; type: cell-based, Murine; conditions: Mus musculus, ROS level, mean ± SD, * P < 0.05 vs DMSO; for activity at 10 µM: compound at 10 µM, read-out: H2-DCFDA assay (% of control), C1 (10 µM); for activity at 20 µM: compound at 20 µM, read-out: H2-DCFDA assay (% of control), C2 (20 µM); for activity at 50 µM: compound at 50 µM, read-out: H2-DCFDA assay (% of control), C3 (50 µM)
Procedure: The antiproliferative activities of OSe compounds 2, 3, and 4 were assessed against two oligodendrocyte cell lines, namely, 158 N and 158 JP, by the M.T.T. assay using 7-ketocholesterol as reference control (Supporting info, Supplementary Table S1) ([Vejux et al., 2005]; [Nury et al., 2014]). The redox profile of the compounds was evaluated using the H2-DCFDA assay, and their antiapoptotic potential was also assessed by flow cytometry ([Wilhelm et al., 2009]; [Karlsson et al., 2010]; [Shaaban et al., 2018]). ROS overproduction and O2^•− and were detected with H2-DCFDA assay. Cultured cells were treated with trypsin re-suspended in PBS (10^6 cells/mL) and kept in the dark for half hour at 37 °C with H2-DCFDA at 10 μM and cells were analyzed by flow cytometry. The green fluorescence of 2’,7’- dichlorofluorescein resulting from the oxidation of H2-DCFDA was analyzed by flow cytometry and collected through a 520/10-nm band pass filter. Flomax (Partec) or FlowJo (Tree Star Inc.) software were used for the data analysis.

158N cells [3] = assay: Antiapoptotic effect: Sub-G1 peak by flow cytometry, PI staining, 7kc as apoptosis stimulator; type: cell-based, Murine; conditions: 158N cells stained with P.I., 7kc (50 μM) 24 hours, compound at 50, 10, 5 and 1 μM
Procedure: Furthermore, the antiapoptotic activities of compounds 2, 3, and 4 were also evaluated by flow cytometry in 158N cells stained with P.I. using 7Kc as apoptosis stimulator and the positive reference (Supporting info, Supplementary Figure S1). […] The N-maleanilic acid 3 amphiphilic characters favor its crossing through the cell membrane and, therefore, its better activity.
The analysis of the cell cycle can reveal a Sub-G1 peak, which is representative of apoptotic cells. Cell cycle analysis was detected on 158N cells stained with Propidium Iodide (PI). Flow cytometric analyses were measured on a Galaxy flow cytometer. Cells were prepared by re-suspension in cold ethanol (80%, −20 °C) for 2 hrs.Cells were then washed withphosphate buffer, and re-suspended in phosphate buffer (300 μL) containing PI (80 μg/mL) and RNase (200 μg/mL) and kept for 1 h at 37°C.PBS 2 mL was then added, and Fluorescence of propidium iodide was recorded using a 590 ± 10 nm band filter. The percentage of cells in different cell cycle phase was manually estimated.
Figure S1. Anti-apoptotic effect of the organoselenium derivative 3 on oligodendrocytes. The anti-apoptotic effect was measured by cytometry using propidium iodide. […]

## Nc1ccc([Se]Cc2ccc(Br)cc2)cc1 [Compound 2, 4-((4-bromobenzyl)selanyl)aniline]
In vitro; Cytotoxicity assay IC50, 158JP
  IC50 at 1 day: ≥ 100 µM
In vitro; Cytotoxicity assay IC50, 158N
  IC50 at 1 day: ≥ 100 µM
158N cells [1]
  IC50: > 100 µM
158JP cells
  IC50: > 100 µM
other
  melting point: 156 to 158 °C
158N cells [2]
  activity at 10 µM: 36 ± 8%
  activity at 20 µM: 41 ± 2%
  activity at 50 µM: 48 ± 2%

## O=C(O)C=CC(=O)Nc1ccc([Se]Cc2ccc(Br)cc2)cc1 [Compound 3, 4-((4-((4-bromobenzyl)selanyl)phenyl)amino)-4-oxobut-2-enoic acid]
In vitro; Cytotoxicity assay IC50, 158JP
  IC50 at 1 day: 50 µM
In vitro; Cytotoxicity assay IC50, 158N
  IC50 at 1 day: 29 µM
158N cells [1]
  cytotoxicity (in words): moderate-low cytotoxicity
158JP cells
  cytotoxicity (in words): moderate-low cytotoxicity
other
  melting point: 215 to 217 °C
158N cells [2]
  activity at 10 µM: 42 ± 10%
  activity at 20 µM: 36 ± 20%
  activity at 50 µM: 31 ± 20%
158N cells [3]
  formation of SubG1 peak (antiapoptotic activity, in words): lowered, in a concentration-dependent manner, the formation of SubG1 peak

## CC(C)CCC[C@@H](C)[C@H]1CC[C@H]2[C@@H]3C(=O)C=C4C[C@@H](O)CC[C@]4(C)[C@H]3CC[C@]12C [7kc, 7-ketocholesterol, reference compound]
In vitro; Cytotoxicity assay IC50, 158JP
  IC50 at 1 day: 74 µM
In vitro; Cytotoxicity assay IC50, 158N
  IC50 at 1 day: 37 µM
158N cells [2]
  activity at 50 µM: 48 ± 2%

## O=C1C=CC(=Nc2ccc([Se]Cc3ccc(Br)cc3)cc2)O1 [Compound 4]
In vitro; Cytotoxicity assay IC50, 158JP
  IC50 at 1 day: ≥ 100 µM
In vitro; Cytotoxicity assay IC50, 158N
  IC50 at 1 day: ≥ 100 µM
158N cells [1]
  IC50: > 100 µM
158JP cells
  IC50: > 100 µM
other
  melting point: 185 to 187 °C
158N cells [2]
  activity at 10 µM: 7 ± 4%
  activity at 20 µM: 8 ± 4%
  activity at 50 µM: 11 ± 4%
